The text below walks through data of patent US20110288154A1, “RNA Interference Mediated Inhibition of Epithelial Sodium Channel (ENaC) Gene Expression Using Short Interfering Nucleic Acid (siNA)” (MERCK & CO., INC., priority 2008, published 2011).

[invAb] = inverted abasic unit; m = 2'-O-methyl; r = 2'-OH (RNA); f = 2'-fluoro

One data set concerns rSCNN1A (r ENaCα) mRNA. Kind of data set: Screening of ENaCα siNAs in Rat H-4-II-E cells (quantitative RT-PCR). The following applies: for Mean (rSCNN1A expression normalized to the level of rGAPDH) / Percent Reduction of the r ENaCα mRNA relative to a non-targeting control siNA (NTCs) / Avg ENaCα Expression (rSCNN1A) / Avg GAPDH Expression (rGAPDH): Rat H-4-II-E cells, n = 3; for Mean (rSCNN1A expression normalized to the level of rGAPDH) / Percent Reduction of the r ENaCα mRNA relative to a non-targeting control siNA (NTCs) / Avg GAPDH Expression (rGAPDH): 24 hours post-transfection; for Avg ENaCα Expression (rSCNN1A): harvested 24 hours post-transfection; for Avg GAPDH Expression (rGAPDH): housekeeping gene used for normalisation. More on the design: Percent Reduction of the r ENaCα mRNA relative to a non-targeting control siNA (NTCs) / Rat % KD (efficacy of ENaCα mRNA knockdown): concentration or dose not given beside the values. The data set is classed as cell-based. As to the method: (§1) A series of probes and primers were used to detect the various mRNA transcripts of the genes of ENaCa and GAPDH in mouse, rat, and human cell lines. The assays were performed on an ABI 7500 instrument, according to the manufacturer's instructions. Within each experiment, the baseline was set in the exponential phase of the amplification curve, and based on the intersection point of the baselines with the amplification curve, a Ct value was assigned by the instrument. This Ct value was then assigned a QTY value based on the Standard Curve. The standard curve in the various experiments herein used 1 ng to 300 ng of RNA extracted from the same cell line used for the experimental transfections.
All IC50 values were calculated from the data using GraphPad Prizm software, specifically a sigmoidal, variable slope curve for simple ligand binding. Also, unless otherwise indicated, all calculations of the efficacy and potency (e.g., % knockdown) of the siNAs were done relative to a non-targeting control siNA. If reported, P-values were computed using The Students t-test, including the Welch Correction for unequal variances.
In all of the calculations of the % knock-down of mRNA, the calculation was made relative to the normalized level of expression of the gene of interest in the samples treated with the non-targeting control (NTC) unless otherwise indicated. The gene of interest expression level was divided by the level of expression of GAPDH or 36B4 (depending on the species) in each sample. The three replicates for each condition in each experiment were averaged and the standard deviation of those samples was calculated. The following formula was then used to calculate the % of knock-down of the gene of interest:
The ENaCα siNAs were designed and synthesized as described previously. The siNAs were screened in three cell lines. Human A549 cells, mouse NIH 3T3 and Rat H-4-II-E cells. The data from the screen of ENaCa siNAs in all three species is shown in Tables 3a, 3b, 4a, 4b, 5a, and 5b and a summary of the data for certain siNA molecules is presented in Table 6. Each screen was performed at 24 hrs. The decision to use this time point was based upon the degree of knockdown of the mRNA seen at that time point.

The next data set concerns ENaCα mRNA. Kind of data set: Screening of ENaCα siNAs in human A549 cells (quantitative RT-PCR). Conditions: for Avg ENaCα Expression / Mean (level of ENaCα expression normalized to the level of GAPDH) / Percent Reduction of the ENaCα mRNA relative to a non-targeting control siNA (NTC) / Avg GAPDH Expression: human A549 cells, n = 3; for Avg ENaCα Expression: 25 nM siNA with Lipofectamine 2000, harvested 24 hours post-transfection; for Mean (level of ENaCα expression normalized to the level of GAPDH) / Percent Reduction of the ENaCα mRNA relative to a non-targeting control siNA (NTC) / Avg GAPDH Expression: 24 hours post-transfection; for Avg GAPDH Expression: housekeeping gene used for normalisation. The arrangement: Percent Reduction of the ENaCα mRNA relative to a non-targeting control siNA (NTC): concentration or dose not given beside the values. The data set is classed as cell-based. As for the experimental part: siNA constructs (Table 1b) may be tested for efficacy in reducing ENaC RNA expression in, for example, A549 human lung carcinoma cells. A549 (human; ATCC cat# CCL-185) cells were cultured at 37° C. in the presence of 5% CO2 and grown in Ham's F12K medium with 2 mM L-glutamine adjusted to contain 1.5 g/L sodium bicarbonate and supplemented with fetal bovine serum at a final concentration of 10% and 100 U/mL penicillin. The A549 cells were plated approximately 24 hours before transfection in 96-well plates at 7,500 cells/well, 100 μl/well. After 24 hours complexes containing siNA and Lipofectamine 2000 (Invitrogen) were created as follows: a solution of Lipofectamine 2000 in OPTI-MEM was prepared containing Lipofectamine 2000 at a final concentration of 14 μg/ml. In parallel, solutions of the siNAs were prepared in OPTI-MEM at a final concentration of 150 nM. After both solutions were incubated at 20° C. for 20 minutes an equal volume of the siNA solutions and the Lipofectamine 2000 solution were added together for each of the siNAs. The resultant solution has the siNAs at a final concentration of 75 nM and Lipofectamine 2000 at a final concentration of 7 μg/ml. This solution was incubated at 20° C. for 20 minutes. After incubation 50 μl of the solution were added to each of the wells (in triplicate). The final concentration of siNA in each well was 25 nM and the final concentration of Lipofectamine 2000 in each well was 2.33 μg/ml. […] Dose response curves were determined in a similar manner with each concentration being done in triplicate and maintaining a constant amount of Lipofectamine 2000 in each transfection.
RNA was extracted from 96-well plates using the Invitek Invisorb RNA Cell HTS 96 Kit/C (Cat# 70619000) with a slightly modified protocol. The details of the protocol for isolating RNA from each plate are described as follows:
1) Aspirate media with rake 2) Add 150 ul/well Lysis buffer 3) Place on plate shaker for 1 minute 4) Place DNA binding plate on top of 0.5 ml collection plate 5) Pipette 190 ul up and down twice and add to DNA binding plate 6) Cover plate 7) Centrifuge plates 4 minutes at 4000 RPM 8) Discard DNA binding plate 9) Place the RNA binding plate on top of 2 ml collection plate 10) Add 150 ul/well of Binding Buffer R to 0.5 ml collection plate 11) Move contents of 0.5 ml collection plate to RNA binding plate 12) Let incubate for 1 minute 13) Centrifuge plates 4 minutes at 4000 RPM 14) Add 600 ul/well of Wash Buffer R1 to RNA binding plate 15) Centrifuge plates 4 minutes at 4000 RPM 16) Dump wash buffer from 2 ml collection plate 17) Add 400 ul/well of Wash Buffer R2 to RNA binding plate 18) Centrifuge plates 4 minutes at 4000 RPM 19) Add 400 ul/well of Wash Buffer R2 to RNA binding plate 20) Centrifuge plates 10 minutes at 4000 RPM 21) Dump wash buffer from 2 ml collection plate 22) Centrifuge plates 3 minutes at 4000 RPM 23) Discard 2 ml collection plate and place RNA binding plate on to microtiter plate 24) Add 100 ul/well of elution buffer to RNA binding plate 25) Incubate for 2 minutes 26) Seal plate 27) Centrifuge plates 3 minutes at 4000 RPM 28) Discard RNA binding plate 29) Cover microtiter plate for storage in −80 freezer
as §1, with “transfections. […]” for “transfections.”

As to “B cAcuccuGcuuccAGGAGA TTB / UCUccuGGAAGcAGGAGuGUU (sense CACUCCUGCUUCCAGGAGATT; antisense UCUCCUGGAAGCAGGAGUGUU; siRNA; sense: DNA at AGT, 2'-fluoro at CU, [invAb] at 5' end, 3' end, backbone not given here; antisense: sugars from the 5' end rrrfffmmmmmfmmmmmfmmm, backbone not given here) [Site 1351]”, in the data set on rSCNN1A (r ENaCα) mRNA, the “Mean (rSCNN1A expression normalized to the level of rGAPDH)” value amounted to 0.72, the “Percent Reduction of the r ENaCα mRNA relative to a non-targeting control siNA (NTCs)” value was found to be 43.7%, the “Avg ENaCα Expression (rSCNN1A)” value worked out at 18.06 and the “Avg GAPDH Expression (rGAPDH)” value was determined as 24.87. Moreover, in the data set with ENaCα mRNA, the “Avg ENaCα Expression” value is given as 68.14, the “Mean (level of ENaCα expression normalized to the level of GAPDH)” value worked out at 1.12, the “Percent Reduction of the ENaCα mRNA relative to a non-targeting control siNA (NTC)” value is recorded as 28.2% and the “Avg GAPDH Expression” value worked out at 64.22.

On to “B uGGcuGuGccuAcAucuuc TTB / GAAGAuGuAGGcAcAGccAUU (sense UGGCUGUGCCUACAUCUUCTT; antisense GAAGAUGUAGGCACAGCCAUU; siRNA; sense: DNA at AGT, 2'-fluoro at CU, [invAb] at 5' end, 3' end, backbone not given here; antisense: sugars from the 5' end rrrmmfmfmmmfmfmmffmmm, backbone not given here) [Site 1386]”, for which, in the data set with rSCNN1A (r ENaCα) mRNA, the “Mean (rSCNN1A expression normalized to the level of rGAPDH)” value is listed as 0.48, the “Percent Reduction of the r ENaCα mRNA relative to a non-targeting control siNA (NTCs)” value came to 48.3%, the “Avg ENaCα Expression (rSCNN1A)” value worked out at 17.21 and the “Avg GAPDH Expression (rGAPDH)” value amounted to 36.31. In addition, in the data set with ENaCα mRNA, the “Avg ENaCα Expression” value worked out at 72.05, the “Mean (level of ENaCα expression normalized to the level of GAPDH)” value was determined as 0.64, the “Percent Reduction of the ENaCα mRNA relative to a non-targeting control siNA (NTC)” value came to 2.8% and the “Avg GAPDH Expression” value is listed as 112.63.

One may read the IC50 as the point on the concentration scale where inhibition reaches its midpoint. Turning to “B uGuGcAAccAGAAcAAAuc TTB / GAUuuGuucuGGuuGcAcAUU (chain 1 UGUGCAACCAGAACAAAUCTT; chain 2 GAUUUGUUCUGGUUGCACAUU; siRNA; B caps on sense ends, letter-case modifications not given here, further chemistry not given here) [Site 782]”, in the data set with rSCNN1A (r ENaCα) mRNA, the “Mean (rSCNN1A expression normalized to the level of rGAPDH)” value is given as 0.47, the “Percent Reduction of the r ENaCα mRNA relative to a non-targeting control siNA (NTCs)” value came out at 63.7%, the “Avg ENaCα Expression (rSCNN1A)” value is recorded as 13.71 and the “Avg GAPDH Expression (rGAPDH)” value is reported as 29.23. Further, the IC50 in the data set with rSCNN1A (r ENaCα) mRNA (rat cell line, dose response, read-out: Rat IC50 (potency of ENaCα mRNA knockdown)) was 0.8 nM. Besides, in the data set on rSCNN1A (r ENaCα) mRNA (rat cell line, summary), the “Rat % KD (efficacy of ENaCα mRNA knockdown)” value was 63%. In the data set on ENaCα mRNA, the “Avg ENaCα Expression” value was found to be 39.99, the “Mean (level of ENaCα expression normalized to the level of GAPDH)” value was found to be 0.61, the “Percent Reduction of the ENaCα mRNA relative to a non-targeting control siNA (NTC)” value stood at 60.9% and the “Avg GAPDH Expression” value was 66.25. For the same substance, the IC50 with ENaCα mRNA (human cell line, dose response, read-out: Human IC50 (potency of ENaCα mRNA knockdown)) is 0.36 nM. For the same substance, the “Human % KD (efficacy of ENaCα mRNA knockdown)” value in the data set on ENaCα mRNA (human cell line, summary) was 60-85%.

With “B cAGAGcAGAAuGAcuucAu TTB / AUGAAGucAuucuGcucuGUU (sense CAGAGCAGAAUGACUUCAUTT; antisense AUGAAGUCAUUCUGCUCUGUU; siRNA; sense: DNA at AGT, 2'-fluoro at CU, [invAb] at 5' end, 3' end, backbone not given here; antisense: sugars from the 5' end rrrmmmffmffffmffffmmm, backbone not given here) [Site 1100]”, in the data set with rSCNN1A (r ENaCα) mRNA, the “Mean (rSCNN1A expression normalized to the level of rGAPDH)” value was determined as 0.83, the “Percent Reduction of the r ENaCα mRNA relative to a non-targeting control siNA (NTCs)” value worked out at 35.4%, the “Avg ENaCα Expression (rSCNN1A)” value came out at 21.68 and the “Avg GAPDH Expression (rGAPDH)” value worked out at 26.15. Moreover, in the data set with ENaCα mRNA, the “Avg ENaCα Expression” value is listed as 66.11, the “Mean (level of ENaCα expression normalized to the level of GAPDH)” value is given as 1.14, the “Percent Reduction of the ENaCα mRNA relative to a non-targeting control siNA (NTC)” value was found to be 26.8% and the “Avg GAPDH Expression” value stood at 64.16.

Turning to “B GccAGuGGAGccuGuGGuu TTB / AACcAcAGGcuccAcuGGcUU (sense GCCAGUGGAGCCUGUGGUUTT; antisense AACCACAGGCUCCACUGGCUU; siRNA; sense: DNA at AGT, 2'-fluoro at CU, [invAb] at 5' end, 3' end, backbone not given here; antisense: sugars from the 5' end rrrfmfmmmffffmffmmfmm, backbone not given here) [Site 1757]”, in the data set with rSCNN1A (r ENaCα) mRNA, the “Mean (rSCNN1A expression normalized to the level of rGAPDH)” value was 0.72, the “Percent Reduction of the r ENaCα mRNA relative to a non-targeting control siNA (NTCs)” value was 21.5%, the “Avg ENaCα Expression (rSCNN1A)” value is 29.36 and the “Avg GAPDH Expression (rGAPDH)” value amounted to 40.49. Further, in the data set with ENaCα mRNA, the “Avg ENaCα Expression” value came out at 66.53, the “Mean (level of ENaCα expression normalized to the level of GAPDH)” value stood at 0.66, the “Percent Reduction of the ENaCα mRNA relative to a non-targeting control siNA (NTC)” value stood at 0.0% and the “Avg GAPDH Expression” value stood at 101.11.
